From ChEMBL document CHEMBL2169871, “SIRT1 modulation as a novel approach to the treatment of diseases of aging” (J Med Chem, 2011)

Tests used:
[1] = molecular target: T1, NAD-dependent protein deacetylase sirtuin-1 (Homo sapiens, UniProt Q96EB6); experiment: Activation of SIRT1
T1 sequence (Q96EB6 whole entry): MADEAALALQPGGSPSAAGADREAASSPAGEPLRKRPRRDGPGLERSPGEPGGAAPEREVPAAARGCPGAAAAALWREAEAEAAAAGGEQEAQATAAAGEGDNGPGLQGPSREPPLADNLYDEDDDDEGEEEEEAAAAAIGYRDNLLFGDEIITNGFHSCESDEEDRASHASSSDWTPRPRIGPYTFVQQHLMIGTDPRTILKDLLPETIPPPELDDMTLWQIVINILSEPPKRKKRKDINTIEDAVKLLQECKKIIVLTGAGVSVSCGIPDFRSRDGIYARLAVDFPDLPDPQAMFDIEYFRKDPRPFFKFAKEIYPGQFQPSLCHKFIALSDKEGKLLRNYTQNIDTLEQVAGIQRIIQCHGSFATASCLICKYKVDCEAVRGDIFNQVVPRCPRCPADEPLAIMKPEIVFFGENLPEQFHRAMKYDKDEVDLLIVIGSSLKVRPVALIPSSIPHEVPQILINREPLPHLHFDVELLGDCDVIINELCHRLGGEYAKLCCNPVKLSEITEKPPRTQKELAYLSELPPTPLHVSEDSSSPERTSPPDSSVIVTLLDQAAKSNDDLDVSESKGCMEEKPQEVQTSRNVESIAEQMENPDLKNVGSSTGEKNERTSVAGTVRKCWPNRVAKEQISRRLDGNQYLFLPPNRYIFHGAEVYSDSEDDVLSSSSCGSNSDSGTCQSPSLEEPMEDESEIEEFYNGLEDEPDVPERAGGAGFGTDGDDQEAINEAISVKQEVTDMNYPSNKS

[2] = molecular target: T2, NAD-dependent protein deacetylase sirtuin-2 (Homo sapiens, UniProt Q8IXJ6); experiment: Inhibition of SIRT2
T2 sequence (Q8IXJ6 whole entry): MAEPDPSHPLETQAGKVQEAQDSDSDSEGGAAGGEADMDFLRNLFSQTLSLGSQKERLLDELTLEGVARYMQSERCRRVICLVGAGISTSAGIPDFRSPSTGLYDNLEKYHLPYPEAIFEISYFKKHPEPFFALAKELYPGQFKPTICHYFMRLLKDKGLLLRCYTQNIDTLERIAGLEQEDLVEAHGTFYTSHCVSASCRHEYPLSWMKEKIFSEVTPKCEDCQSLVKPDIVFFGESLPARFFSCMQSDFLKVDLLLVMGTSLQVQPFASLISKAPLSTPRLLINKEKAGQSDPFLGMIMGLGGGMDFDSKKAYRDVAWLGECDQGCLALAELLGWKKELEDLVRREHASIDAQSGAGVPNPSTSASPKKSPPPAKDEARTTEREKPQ

[3] = molecular target: T1, NAD-dependent protein deacetylase sirtuin-1; experiment: Inhibition of SIRT1
[4] = molecular target: T3, NAD-dependent protein deacetylase sirtuin-1 (Homo sapiens) (UniProt Q96EB6); experiment: Activation of SIRT1 relative to control
T3 sequence (whole entry): T1 sequence (Q96EB6 whole entry)

[5] = Half life in mouse; type: ADME, organism-based; conditions: in vivo
[6] = molecular target: T4, NAD-dependent protein deacetylase sirtuin-3, mitochondrial (Homo sapiens, UniProt Q9NTG7); experiment: Inhibition of SIRT3
T4 sequence (Q9NTG7 whole entry): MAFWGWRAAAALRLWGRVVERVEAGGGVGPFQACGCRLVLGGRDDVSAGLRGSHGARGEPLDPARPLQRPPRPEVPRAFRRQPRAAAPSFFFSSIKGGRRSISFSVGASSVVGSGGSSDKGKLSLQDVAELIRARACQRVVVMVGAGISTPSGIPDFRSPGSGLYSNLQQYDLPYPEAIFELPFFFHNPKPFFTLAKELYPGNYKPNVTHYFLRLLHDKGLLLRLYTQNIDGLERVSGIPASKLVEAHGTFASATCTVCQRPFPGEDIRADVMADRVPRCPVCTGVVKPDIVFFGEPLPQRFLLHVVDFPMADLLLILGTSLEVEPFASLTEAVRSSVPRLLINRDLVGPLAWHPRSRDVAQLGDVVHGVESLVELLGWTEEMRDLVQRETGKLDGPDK

Mus musculus [7] = experiment: Increase of SIRT1 mRNA expression in mouse brain at 25 mg/kg qd for 7 days by RT-PCR analysis; type: functional
Mus musculus [8] = experiment: Increase of SIRT1 mRNA expression in mouse brain at 12.5 mg/kg qd for 7 days by RT-PCR analysis; type: functional
Mus musculus [9] = experiment: Increase of SIRT1 mRNA expression in mouse soleus muscle at 12.5 to 25 mg/kg qd for 7 days by RT-PCR analysis; type: functional; conditions: dose mg/kg 12.5-25

| Compound | EC50 [1] | IC50 [3] | Emax [4] | also measured |
| --- | --- | --- | --- | --- |
| O=C(Nc1ccccc1-c1nc2cccnc2s1)c1cc(NC[C@@H](O)CO)nc(-c2ccccc2)n1 | < 0.25 µM |  |  |  |
| O=C1NC(=S)NC(=O)C1=Cc1cccc2ccccc12 |  | 13 µM |  | IC50 [2]: 9 µM |
| O=C(Nc1ccc(CN2CCNCC2)cc1-c1nc2ccccc2[nH]1)c1cnc2ccccc2n1 | 0.4 µM |  | 820% |  |
| Cc1ccc(C(=O)Nc2ccc(S(=O)(=O)O)c3cc(S(=O)(=O)O)cc(S(=O)(=O)O)c23)cc1NC(=O)c1cccc(NC(=O)Nc2cccc(C(=O)Nc3cc(C(=O)Nc4ccc(S(=O)(=O)O)c5cc(S(=O)(=O)O)cc(S(=O)(=O)O)c45)ccc3C)c2)c1 [SURAMIN HEXASODIUM] |  |  |  | IC50 [2]: 1.2 µM |
| O=c1[nH]c(=S)[nH]c(-c2ccc(Br)cc2)c1Cc1c(O)ccc2ccccc12 |  | 13 µM |  |  |
| Cc1ccc2[nH]c(=O)c(C=C3C(=O)NC(=S)NC3=O)cc2c1 |  | 13 µM |  | IC50 [2]: 11 µM |
| COc1ccc(C(=O)Nc2ccccc2-c2nc3ncccc3o2)cc1OC | 0.9 µM |  | 170% |  |
| NC(=O)c1ccccc1Nc1ccccc1 [ANILINOBENZAMIDE] |  | 17 µM |  |  |
| O=C(Nc1ccccc1-c1nc2ccccc2[nH]1)c1cnc2ccccc2n1 | 0.3 µM |  | 253% |  |
| O=C1Nc2c(ccc(Cl)c2Cl)/C1=C/c1cc(Br)c(O)c(Br)c1 |  | 40 µM |  | IC50 [2]: 28 µM |
| NC(=O)C1CCCc2c1[nH]c1ccc(Cl)cc21 (configuration not stated) |  |  |  | half-life [5]: 3.23 h |
| CCOC(=O)CC(=O)NCCCC[C@H](NC(=O)OCc1ccccc1)C(=O)Nc1ccccc1 |  | 4 µM |  | IC50 [6]: > 300 µM; IC50 [2]: 65 µM |
| O=C1c2cccc3cccc(c23)C(=O)N1CCNCCCNCCCNCCN1C(=O)c2cccc3cccc(c23)C1=O |  | 43 µM |  |  |
| CN(C)c1cccc(C(=O)Nc2cccc(-c3nc4ncccc4o3)c2)c1 | 25 µM |  | 207% |  |
| O=C1NC(=S)NC(=O)C1=Cc1cc2ccccc2[nH]1 |  | 6 µM |  | IC50 [2]: 20 µM |
| O=c1c(O)c(-c2ccc(O)c(O)c2)oc2cc(O)cc(O)c12 [QUERCETIN] |  |  |  | Activity (Mus musculus [7]): 100%; Activity (Mus musculus [8]): 50%; Activity (Mus musculus [9]): 200% |
| O=C(Nc1nccs1)c1cccc2[nH]c(-c3cccc(C(F)(F)F)c3)nc12 | < 1 µM |  | > 200% |  |
| O=C(Nc1ccccc1-c1nc2cccnc2s1)c1cc(N2CCNCC2)nc(-c2ccccc2)n1 | < 0.25 µM |  |  |  |
| CN(C)c1cccc(C(=O)Nc2ccccc2-c2nc3ncccc3o2)c1 | 4.4 µM |  | 209% |  |
| CC(=S)NCCCC[C@H](NC(=O)OCc1ccccc1)C(=O)Nc1ccccc1 |  |  |  | IC50 [6]: > 100 µM |
| COc1ccc(C(=O)Nc2cccc(-c3nc4ncccc4o3)c2)cc1OC | 6 µM |  | 240% |  |
| O=C(Nc1ccccc1-c1nc2cccnc2s1)c1cc(N2CCOCC2)nc(-c2ccccc2)n1 | < 0.25 µM |  |  |  |
